biological target: T1, KDM4C (Homo sapiens, UniProt Q9H3R0); test: KDM4C Assay (SAMDI mass spectrometry demethylase assay); format: biochemical; details: N-terminal GST-tagged KDM4C 2-372; class symbols; read-out: 4C IC50
T1 construct: N-terminal GST-tagged KDM4C^2-372 was purchased from BPS Biosciences; GST (N); purchased BPS Biosciences
T1 sequence (Q9H3R0 2-372): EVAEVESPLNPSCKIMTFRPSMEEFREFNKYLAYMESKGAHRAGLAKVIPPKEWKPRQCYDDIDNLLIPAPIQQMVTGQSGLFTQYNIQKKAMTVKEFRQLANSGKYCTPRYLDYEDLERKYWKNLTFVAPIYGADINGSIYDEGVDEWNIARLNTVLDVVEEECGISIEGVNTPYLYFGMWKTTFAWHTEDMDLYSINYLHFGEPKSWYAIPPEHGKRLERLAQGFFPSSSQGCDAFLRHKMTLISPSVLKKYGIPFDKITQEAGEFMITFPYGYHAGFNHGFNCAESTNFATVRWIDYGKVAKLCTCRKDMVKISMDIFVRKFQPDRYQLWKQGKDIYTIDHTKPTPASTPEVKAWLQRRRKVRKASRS
Procedure, shortened: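 GST-tagged KDM4C 2-372 (5 nM) preincubated 30 min with compound, then H3K9me3 biotinylated peptide (500 nM) and 2-oxoglutarate (15 μM) added in HEPES pH 8.0 with ascorbate, Fe(II), TCEP; 150 min at 25 °C, formic-acid quench. Conversion by SAMDI mass spectrometry from substrate/product peak AUC; IC50 from dose-response.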

SMILES	IC50 [nM]
Cc1c(Nc2cnccc2C(=O)O)cnn1C1CCN(CC2CC2)CC1 [Compound 90, 3-(1-(1-(cyclopropylmethyl)piperidin-4-yl)-5-methyl-1H-pyrazol-4-ylamino) isonicotinic acid]	100 to 1000
Cn1nc(Nc2cnccc2C(=O)O)cc1-c1ccccc1 [Compound 5]	100 to 1000
O=C(O)c1ccncc1Nc1nn(-c2ccccc2)cc1-c1ccncc1 [Compound 88, 3-((1-phenyl-4-(pyridin-4-yl)-1H-pyrazol-3-yl)amino) isonicotinic acid]	1 to 100
Cc1nn(C2CCN(C3CCC3)CC2)cc1Nc1cnccc1C(=O)O [Compound 94, 3-(1-(1-cyclobutylpiperidin-4-yl)-3-methyl-1H-pyrazol-4-ylamino)isonicotinic acid]	100 to 1000
NC1CCC(n2nc(-c3cccc(Cl)c3)cc2Nc2cnccc2C(=O)O)CC1 (centres unmarked) [Compound 85, 3-((1-(4-aminocyclohexyl)-3-(3-chlorophenyl)-1H-pyrazol-5-yl)amino)isonicotinic acid]	1000 to 10000
Cc1nn(C2CCN(C3CN(C)C3)CC2)cc1Nc1cnccc1C(=O)O [Compound 91, 3-(3-methyl-1-(1-(1-methylazetidin-3-yl)piperidin-4-yl)-1H-pyrazol-4-ylamino)isonicotinic acid]	1000 to 10000
NC1CCC(n2nc(Nc3cnccc3C(=O)O)cc2-c2cccc(Cl)c2)CC1 (centres unmarked) [Compound 87, 3-((1-(4-aminocyclohexyl)-5-(3-chlorophenyl)-1H-pyrazol-3-yl)amino)isonicotinic acid]	10000 to 100000
Cc1nn([C@H]2CC[C@@H](N)CC2)cc1Nc1cnccc1C(=O)O [Compound 80, 3-((1-((cis)-4-aminocyclohexyl)-3-methyl-1H-pyrazol-4-yl)amino)isonicotinic acid]	100 to 1000
Cn1ncc(-c2cccnc2)c1Nc1cnccc1C(=O)O [Compound 4]	1000 to 10000
Cc1c(Nc2cnccc2C(=O)O)cnn1C1CCN(C2CN(C)C2)CC1 [Compound 92, 3-(5-methyl-1-(1-(1-methylazetidin-3-yl)piperidin-4-yl)-1H-pyrazol-4-ylamino)isonicotinic acid]	100 to 1000

Results, then the molecule that gave them:

IC50 [nM]	SMILES
10000 to 100000	COC(=O)c1ccncc1Nc1cnn(C2CCN(C3CCC3)CC2)c1C [Compound 95, methyl 3-((1-(1-cyclobutylpiperidin-4-yl)-5-methyl-1H-pyrazol-4-yl)amino)isonicotinate]
1000 to 10000	O=C(O)c1ccncc1Nc1cc(-c2cccc(Cl)c2)n(C2CCC3(CC2)OCCO3)n1 [Compound 86, 3-((5-(3-chlorophenyl)-1-(1,4-dioxaspiro[4.5]decan-8-yl)-1H-pyrazol-3-yl)amino)isonicotinic acid]
100 to 1000	Cc1nn(C2CCN(CC3CC3)CC2)cc1Nc1cnccc1C(=O)O [Compound 89, 3-(1-(1-(cyclopropylmethyl)piperidin-4-yl)-3-methyl-1H-pyrazol-4-ylamino)isonicotinic acid]
1 to 100	CCc1c(Nc2cnccc2C(=O)O)cnn1-c1ccccc1 [Compound 81, 3-((5-ethyl-1-phenyl-1H-pyrazol-4-yl)amino)isonicotinic acid]
1 to 100	Cc1ccc(-n2cc(Nc3cnccc3C(=O)O)c(C)n2)cc1 [Compound 82]
1000 to 10000	CN1CCC(n2ncc(Nc3cnccc3C(=O)O)c2-c2ccccc2)CC1 [Compound 126, 3-(1-(1-methylpiperidin-4-yl)-5-phenyl-1H-pyrazol-4-ylamino) isonicotinic acid]

same assay, conditions: N-terminal GST-tagged KDM4C 2-372; numeric bound; read-out: 4C IC50

IC50 [nM]	SMILES
> 100000	COC(=O)c1ccncc1Nc1cn(C2CCN(C3CCC3)CC2)nc1C [Compound 93, methyl 3-((1-(1-cyclobutylpiperidin-4-yl)-3-methyl-1H-pyrazol-4-yl)amino)isonicotinate]
